Values after ≈ are worked out from the molar mass of the structure shown. Like-named read-outs stand apart in the source and are kept apart here. Bounds are passed on as bounds.

For one series, the system named is M. tuberculosis. Nature of the series: Activity of the main metabolite (test not described). The note with it: metabolite produced in the presence of M. tuberculosis.
In a further series the test system is E. coli WP2 uvr A. Nature of the series: Bacterial reverse mutation (BRM) test. In kind it is cell-based. On the procedure: (§1) The BRM test was performed in accordance with OECD Guideline 471 using Salmonella tyiphimurium TA98, TA100, TA1535, and TA1537, and Escherichia coli WP2 uvrA [11]. Each bacterial strain was pre-cultured at 37 °C for 18 h using a nutrient broth (Nissui Pharmaceutical; http://www.nissui-pharm.co.jp/index_e.html). After adjustment to 2.4 at OD660 nm, each bacterial suspension was added to a test tube containing the designated compound in the absence or presence of rat liver microsome (S9) mix. After a 20-min incubation at 37 °C, top agar was added to each test tube and the contents were poured into minimum essential medium (Oriental Yeast; http://www.oyc.co.jp/e/index.htm). The number of revertants was counted 48 h after incubation at 37 °C.

For the next series, the system named is S. typhimurium TA100. The series is described as follows: Bacterial reverse mutation (BRM) test. In kind it is cell-based. As to the method:
as §1

Another series relates to S. typhimurium TA98. Nature of the series: Bacterial reverse mutation (BRM) test. It is filed as cell-based. As to the method: as §1
Series [1] relates to M. tuberculosis ATCC 25618 (H37Rv). Nature of the series: Susceptibility testing (agar dilution MIC). In kind it is cell-based. The note with it: Mycobacterium tuberculosis, 336 h.
Series [2] has as its system M. tuberculosis ATCC 35838 (H37Rv-R-R). The series is described as follows: microbe, parasite or virus in culture. It is filed as cell-based. The note with it: Mycobacterium tuberculosis, 336 h.
The test system of series [3] is M. tuberculosis ATCC 35822 (H37Rv-H-R). The series is described as follows: microbe, parasite or virus in culture. In kind it is cell-based. Particulars: Mycobacterium tuberculosis, 336 h.
The subject of series [4] is M. tuberculosis ATCC 35837 (H37Rv-E-R). The series is described as follows: microbe, parasite or virus in culture. Particulars: Mycobacterium tuberculosis, 336 h. It is filed as cell-based.
Series [5] deals with M. tuberculosis ATCC 35820 (H37Rv-S-R). Nature of the series: microbe, parasite or virus in culture. It is filed as cell-based. The note with it: Mycobacterium tuberculosis, 336 h.
Series [6] deals with M. tuberculosis ATCC 35812 (Kurono). The series is described as follows: Susceptibility testing (agar dilution MIC). It is filed as cell-based. Particulars: Mycobacterium tuberculosis, ATCC35812, 336 h.
In series [7] the test system is clinically isolated M. tuberculosis. Nature of the series: microbe, parasite or virus in culture. It is filed as cell-based. Particulars: Mycobacterium tuberculosis; read-out: MIC90.
Series [8] has as its system mycolic acid synthesis in M. bovis BCG. Nature of the series: microbe, parasite or virus in culture. In kind it is cell-based. Particulars: Mycobacterium tuberculosis variant bovis BCG, BCG.
Series [9] deals with intracellular M. tuberculosis H37Rv in THP-1 cells. The series is described as follows: Activity against intracellular mycobacteria, 4-h pulsed exposure. In kind it is cell-based, M. tuberculosis; human THP-1 cells. Particulars: further 68-h culture.
Another series concerns M. tuberculosis Kurono. Nature of the series: Therapeutic efficacy in an experimental mouse model of chronic TB. In kind it is in vivo, ICR mice. Particulars: for Log of Viable Counts/Lung: 672 h.
Series [10] in a line: Plasma levels in an experimental mouse model of TB. The note with it: in vivo, po.
In another series the test system is S. typhimurium TA1535. Nature of the series: Bacterial reverse mutation (BRM) test. In kind it is cell-based. Particulars: S9 mix +; positive control 2AA 2 μg/plate. On the procedure: as §1
The test system of the next series is S. typhimurium TA1537. The series is described as follows: Bacterial reverse mutation (BRM) test. The note with it: S9 mix +; positive control 2AA 2 μg/plate. In kind it is cell-based. As to the method:
as §1

For a further series, the target named is T1, CYP2A6 (Homo sapiens, UniProt P11509).
T1 construct: Standard incubation mixtures of 0.5 ml contained microsomal protein (0.1–0.5 mg); from tissue; host or cells: pooled human liver microsomes (ten donors)
T1 sequence (P11509 1-494): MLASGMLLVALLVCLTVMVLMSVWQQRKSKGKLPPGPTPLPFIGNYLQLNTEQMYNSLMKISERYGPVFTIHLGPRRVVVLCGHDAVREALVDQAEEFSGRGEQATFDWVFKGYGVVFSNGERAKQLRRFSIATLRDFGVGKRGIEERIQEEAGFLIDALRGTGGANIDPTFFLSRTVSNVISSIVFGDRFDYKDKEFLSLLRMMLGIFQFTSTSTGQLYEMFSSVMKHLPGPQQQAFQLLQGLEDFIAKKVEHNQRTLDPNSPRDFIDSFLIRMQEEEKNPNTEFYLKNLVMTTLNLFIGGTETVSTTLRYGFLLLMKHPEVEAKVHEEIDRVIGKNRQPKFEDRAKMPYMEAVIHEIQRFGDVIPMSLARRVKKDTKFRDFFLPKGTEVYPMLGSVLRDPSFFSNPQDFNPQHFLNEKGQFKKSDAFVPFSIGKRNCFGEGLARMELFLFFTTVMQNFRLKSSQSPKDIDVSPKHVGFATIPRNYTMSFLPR
Nature of the series: Coumarin 7-hydroxylation in human liver microsomes. In kind it is in vitro ADME. Particulars: 100 μM; 2 μM coumarin.

The target of another series is T2, CYP2E1 (Homo sapiens, UniProt P05181).
T2 construct: Standard incubation mixtures of 0.5 ml contained microsomal protein (0.1–0.5 mg); from tissue; host or cells: pooled human liver microsomes (ten donors)
The series is described as follows: Chlorzoxazone 6-hydroxylation in human liver microsomes. Particulars: 100 μM; 100 μM chlorzoxazone. In kind it is in vitro ADME.

Setting [11] is: S9 mix −, positive control AF-2 0.01 μg/plate.

T2 sequence (P05181 whole entry): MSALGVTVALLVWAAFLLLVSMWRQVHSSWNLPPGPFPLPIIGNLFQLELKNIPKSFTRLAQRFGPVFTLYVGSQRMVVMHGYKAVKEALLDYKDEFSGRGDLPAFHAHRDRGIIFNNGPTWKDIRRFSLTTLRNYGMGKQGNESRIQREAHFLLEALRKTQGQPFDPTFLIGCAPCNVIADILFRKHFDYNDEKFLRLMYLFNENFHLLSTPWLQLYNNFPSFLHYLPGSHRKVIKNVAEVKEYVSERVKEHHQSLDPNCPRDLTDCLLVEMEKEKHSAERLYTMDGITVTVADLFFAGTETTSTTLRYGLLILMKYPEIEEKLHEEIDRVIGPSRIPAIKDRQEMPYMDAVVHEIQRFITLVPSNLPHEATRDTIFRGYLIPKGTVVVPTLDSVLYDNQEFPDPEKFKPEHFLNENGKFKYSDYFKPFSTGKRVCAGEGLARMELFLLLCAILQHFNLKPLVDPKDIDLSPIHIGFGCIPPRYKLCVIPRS

As for `CC1(COc2ccc(N3CCC(Oc4ccc(OC(F)(F)F)cc4)CC3)cc2)Cn2ccnc2O1` (stereo not shown) [desnitro-imidazooxazole], the “Activity of the main metabolite” value with M. tuberculosis was “non-active”.
`NC(=O)C(=Cc1ccc([N+](=O)[O-])o1)c1ccco1` [AF-2, 2-(2-furyl)-3-(5-nitro-2-furyl)acrylamide]: the Revertants/Plate is given as 30 225 Revertants/Plate in the series with E. coli WP2 uvr A (setting [11]); 98 547 Revertants/Plate with S. typhimurium TA100 (setting [11]); 29 473 Revertants/Plate with S. typhimurium TA98 (S9 mix −, positive control AF-2 0.1 μg/plate).
Take `NNC(=O)c1ccncc1` [INH, isoniazid]: the MIC was 0.1 µg/mL (≈ 0.729 µM) in series [1]; 0.1 µg/mL (≈ 0.729 µM) in [2]; more than 100 µg/mL in [3]; 0.2 µg/mL (≈ 1.46 µM) in series [4]; 0.1 µg/mL (≈ 0.729 µM) in series [5]; 0.1 µg/mL (≈ 0.729 µM) in [6]. In addition, the MIC90 in series [7] is 0.099 µg/mL (≈ 0.722 µM). The IC50 in series [8] (1 h, read-out: IC50, Fatty acid) is more than 4 µg/mL; in series [8] (1 h, read-out: IC50, Keto-mycolic acid), 0.69 µg/mL (≈ 5.03 µM); in series [8] (1 h, read-out: IC50, Methoxy-mycolic acid), 0.63 µg/mL (≈ 4.59 µM); in series [8] (1 h, read-out: IC50, α-Mycolic acid), 1.85 µg/mL (≈ 13.5 µM); in series [8] (read-out: IC50 values, all mycolic acid subclasses), 0.63 to 1.85 µg/mL (≈ 4.59 to 13.5 µM). Further, the “Activity against intracellular M. tuberculosis H37Rv” value in [9] is on record as “poor activity”. Besides, the “Log of Viable Counts/Lung” value with M. tuberculosis Kurono (1.25 mg/kg) is 6.702 ± 0.237^c:NS, d:NS; with M. tuberculosis Kurono (2.5 mg/kg) it was 5.751 ± 0.358^c:**, d:*; in the series with M. tuberculosis Kurono (5 mg/kg), 4.944 ± 0.760^c:**, d:**; in the series with M. tuberculosis Kurono (10 mg/kg), 4.434 ± 0.319^c:**, d:**; in the series on M. tuberculosis Kurono (20 mg/kg) it was 4.595 ± 0.452^c:**, d:**. Further, the “Dose that could produce a CFU reduction of at least 95%” value with M. tuberculosis Kurono (lung, once daily for 28 d) came out at 5 mg/kg. In addition, in the series with M. tuberculosis Kurono (once daily for 28 d), the “Dose groups that showed a significant decrease in pulmonary viable bacterial count when compared with the vehicle control group” value is 2.5, 5, 10, and 20 mg/kg. In addition, the concentration at 0.083 h in series [10] came out at 2170 ± 435 ng/mL. In series [10], this molecule displayed a concentration at 0.25 h of 3060 ± 779 ng/mL. The concentration at 0.5 h in [10] worked out at 2280 ± 390 ng/mL. The concentration at 1 h in series [10] came to 1920 ± 478 ng/mL. In [10], the concentration at 2 h was 740 ± 202 ng/mL. This molecule also registered a concentration at 4 h in series [10] of 253 ± 57 ng/mL. In series [10] (10 mg/kg), the AUC(0-t) came to 4550 ng·h/mL. In series [10] (10 mg/kg), this molecule showed a Cmax of 3060 ng/mL. For the same molecule, in series [10] (10 mg/kg), the Tmax was found to be 15 min.
For the molecule `Nc1ccc2cc3ccccc3cc2c1` [2AA, 2-aminoanthracene], the Revertants/Plate in the series with E. coli WP2 uvr A (S9 mix +, positive control 2AA 10 μg/plate) is 33 1122 Revertants/Plate; in the series with S. typhimurium TA100 (S9 mix +, positive control 2AA 1 μg/plate), 108 1103 Revertants/Plate; in the series on S. typhimurium TA1535, 6 188 Revertants/Plate; in the series on S. typhimurium TA1537 it was 81 238 Revertants/Plate; in the series on S. typhimurium TA98 (S9 mix +, positive control 2AA 0.5 μg/plate) it was 36 92 Revertants/Plate.
Turning to `CCN(CC)C(=S)S` [Diethyldithiocarbamate, diethyldithiocarbamate], the “Percent of Control” value is on record as 38.2% of Control on CYP2A6 and 55.0% of Control on CYP2E1.

The values above are taken from PMC1664607 (PLoS Medicine, 2006).
